In brackets after ≈: the same amount, converted by molar mass.
Columns and labels:
Format in all cases: functional, cell-based
L1210 [1] = assay: Concentration required to cause 50% inhibition against murine leukemia L1210 cell line; conditions: Mus musculus
L1210 [2] = assay: Concentration required to cause 50% inhibition against murine leukemia L1210 cell line; 2-4 ug/mL; conditions: Mus musculus
MRC5CV1 [3] = assay: Cytotoxicity of compound was evaluated by incorporation of [methyl-3H]thymidine into MRC5CV1, a control fibroblast cell line, for 1 hr exposure; conditions: Homo sapiens, MRC5CV1, 1 h
T-24 [4] = assay: Cytotoxicity of compound was evaluated by incorporation of [methyl-3H]thymidine into T24, a bladder carcinoma cell line, for 1 hr exposure; conditions: Homo sapiens, T-24, 1 h
CCRF-CEM = assay: Concentration required to cause 50% inhibition against human CEM cell lines
T-24 [5] = assay: Cytotoxicity of compound was evaluated by incorporation of [methyl-3H]thymidine into T24, a bladder carcinoma cell line, continuous exposure; conditions: Homo sapiens
MRC5CV1 [6] = assay: Cytotoxicity of compound was evaluated by incorporation of [methyl-3H]thymidine into MRC5CV1, a control fibroblast cell line, continuous exposure; conditions: Homo sapiens

IC50 (L1210 [1]) | Compound | IC50 (L1210 [2]) | also measured
> 10 mg/L | CC[C@@H](C)[C@H]1NC(=O)[C@H]2N=C(O[C@@H]2C)[C@@H]2CCCN2C(=O)[C@H](Cc2ccccc2)NC(=O)c2csc(n2)[C@@H](C)NC(=O)C2CSC1=N2 [LISSOCLINAMIDE 2] | – | –
> 10 mg/L | CC[C@@H](C)[C@H]1NC(=O)[C@H]2N=C(O[C@@H]2C)[C@@H]2CCCN2C(=O)[C@H](Cc2ccccc2)NC(=O)c2csc(n2)[C@H](C)NC(=O)C2CSC1=N2 [LISSOCLINAMIDE 3] | – | –
0.35 mg/L (≈ 0.459 µM) | CC(C)C[C@H]1NC(=O)[C@H]2N=C(O[C@@H]2C)[C@H]2CSSC[C@@H](NC(=O)c3csc1n3)C1=N[C@H](C(=O)N[C@H](CC(C)C)c3nc(cs3)C(=O)N2)[C@@H](C)O1 [ULITHIACYCLAMIDE] | – | IC50 (MRC5CV1 [3]): 0.22 mg/L (≈ 0.288 µM); IC50 (T-24 [4]): 0.15 mg/L (≈ 0.197 µM); IC50 (CCRF-CEM): 0.01 mg/L (≈ 0.0131 µM); IC50 (T-24 [5]): 0.1 mg/L (≈ 0.131 µM); IC50 (MRC5CV1 [6]): 0.04 mg/L (≈ 0.0524 µM)

The next lines start with the compound.

Compound | IC50 (L1210 [1]) | IC50 (L1210 [2]) | also measured
CC[C@H](C)[C@@H]1NC(=O)c2csc(n2)[C@@H](C(C)C)NC(=O)[C@H]2N=C(O[C@@H]2C)[C@H]([C@@H](C)CC)NC(=O)c2csc(n2)[C@@H](C(C)C)NC(=O)[C@@H]2COC1=N2 [PATELLAMIDE A] | – | 2 mg/L (≈ 2.69 µM) | –
CC[C@@H](C)[C@H]1NC(=O)c2csc(n2)[C@H](C(C)C)NC(=O)[C@H]2N=C(O[C@@H]2C)[C@@H]2CCCN2C(=O)[C@H](Cc2ccccc2)NC(=O)c2csc1n2 [LISSOCLINAMIDE 1] | > 10 mg/L | – | –
CC(C)[C@@H]1NC(=O)[C@H]2N=C(O[C@@H]2C)[C@@H]2CCCN2C(=O)[C@H](Cc2ccccc2)NC(=O)c2csc(n2)[C@H](Cc2ccccc2)NC(=O)[C@H]2CSC1=N2 | 0.8 mg/L (≈ 1.08 µM) | – | –
CC[C@H](C)[C@@H]1NC(=O)c2csc(n2)[C@@H](C)NC(=O)[C@H]2N=C(O[C@@H]2C)[C@H](C(C)C)NC(=O)c2csc(n2)[C@@H](Cc2ccccc2)NC(=O)[C@H]2N=C1O[C@@H]2C [PATELLAMIDE C] | – | 2 mg/L (≈ 2.62 µM) | –
CC[C@H](C)[C@@H]1NC(=O)c2csc(n2)[C@@H](C)NC(=O)[C@H]2N=C(O[C@@H]2C)[C@H](CC(C)C)NC(=O)c2csc(n2)[C@@H](Cc2ccccc2)NC(=O)[C@H]2N=C1O[C@@H]2C [PATELLAMIDE B] | – | 2 mg/L (≈ 2.57 µM) | –

From ChEMBL document CHEMBL1124500, “New cyclic peptides with cytotoxic activity from the ascidian Lissoclinum patella” (J Med Chem, 1989)
